Experiments:
[1] = system: secreted VEGF (Hep3B/VEGF Luciferase cells); test: Secreted VEGF ELISA test in Hep3B-VEGF Luciferase cells, hypoxia induced by deferoxamine; format: cell-based; details: Homo sapiens, deferoxamine about 100 μM, 18-20 hours, 50% reduction of secreted VEGF
Experimental: (§1) The compounds having inhibitory activity in the Hif-1a/p300 assay described above were evaluated using a cellular test on genetically modified human hepatocarcinoma Hep3B cells (Hep3B-VEGFLuciferase) in order to stably express a vector in which the Open Reading Frame of firefly Luciferase is under the control of the rat VEGF gene promoter.
(§2) The Hep-3B-VEGF Luciferase cell line was obtained according to the following procedure.
(§3) Human hepatocarcinoma cells Hep-3B (ATCC reference No. HB-8064) were seeded onto 6-well plates at a concentration of 2.5×10^5 cells/well in 2 ml DMEM/10% FCS and the following day were transfected using Fugene 6 (Roche Biochemicals®). In each well, the transfection mixtures contained 6 μl of the transfection reagent Fugene 6, 1 μg of the pxp2-VEGF-luciferase reporter plasmid (VEGF rat promoter, NCBI GenBank No. of accession U22373, Levy et al., J. Biol. Chem. 270 (22), 13333-13340, 1995), and 10 ng of pcDNA3.1(+)plasmid (INVITROGEN) which makes the cells resistant to neomycin. Transfection was carried out according to the manufacturer's instructions.
(§4) A suitable cell population (phenotypically resistant to neomycin) was selected by means of a cloning approach based on the “dilution limit” procedure (Sambrook J., Fritsch E. F. and Maniatis T. (1989) Molecular Cloning, A Laboratory Manual; Cold Spring Harbor Laboratories). The subsequent assays for Luciferase expression/activity (Luciferase assay) and for the quantification of secreted VEGF in the supernatant (ELISA secreted VEGF test) were carried out with the stably transfected selected cells.
(§5) The following experimental protocol was used:
(§6) Day 1. Hep-3B-VEGF Luciferase cells were seeded onto “blank” 96-wells plates (Greiner) at a density of 1×10^4 cells/well/125 μl of medium, then left to adhere overnight in thermostat (37° C./5% CO2).
(§7) Day 2. 75 μl of “3.2× working solutions” of compound (previously prepared in culture medium so that the DMSO concentration is 1.6% v/v) were added to the cells (partial volume/well=200 μl, partial concentration of compound=1.2×, partial concentration of DMSO=0.6%). After 1 hour incubation in thermostat, hypoxia was induced chemically by addition of 40 μl/well of a 6× (600 μM) stock solution of deferoxamine (final volume/well=240 μl, final concentration of compound=1×, final concentration of DMSO=0.5%, final concentration of deferoxamine=1×≈100 μM). The plates were then thermostated for further 18-20 hours.
(§8) Day 3. The Luciferase assay and the secreted VEGF ELISA test were carried out as follows.
Quantification of secreted VEGF was performed using the “DuoSet Elisa Development System human VEGF” kit (R&D Systems). […] of the supernatant from the “blank” 96-well plates with the cells of the Hep3B/VEGF Luciferase clone were transferred into transparent 96-well plates (Maxisorp) and assayed according to the indications of the kit manufacturer.
(§9) IC50 values (concentration of the compound that causes 50% inhibition of the luciferase signal or 50% reduction of secreted VEGF) for some compounds of the invention are reported in table 2.

[2] = system: VEGF promoter (rat VEGF gene promoter-luciferase reporter in Hep3B cells); test: Luciferase assay in Hep3B-VEGF Luciferase cells, hypoxia induced by deferoxamine; format: cell-based, human; details: deferoxamine about 100 μM, 18-20 hours, 50% inhibition of the luciferase signal
Experimental: as §1
Hif-1 induction by deferoxamine (which causes hypoxia) induces luciferase transcription through activation of the VEGF promoter, which in turn increases luciferase activity, which can be measured with a commercially available kit. The compounds interfering with the Hif-1a/p300 complex inhibit Hif-dependent luciferase activation, resulting in a reduction of luciferase activity. Therefore, this assay allows to evaluate the activity of the compounds towards the VEGF promoter, which is essential to VEGF production and subsequent tumor angiogenesis.
as §2, §3, §4, §5, §6, §7, §8
Quantification of the expression of the Luciferase reporter gene was performed by means of the Bright Glo Reagent (Promega). After removing the supernatant and washing once with PBS, 40 μl/well of Bright Glo Reagent were added to blank 96-well plates with Hep3B/VEGF-Luciferase cells. The expression levels of the reporter gene were determined by reading the plates with a luminometer.
as §9

[3] = target: T1, Biot-HIF-1α786-826/GST-p300323-423 (Homo sapiens, UniProt Q09472); test: Primary biochemical assay for inhibition of the Hif-1α/p300 interaction (DELFIA fluorescence assay); format: binding; details: biotinylated Hif-1α 786-826 / GST-p300 323-423, mean of two independent experiments
T1 construct: the p300 region ranging from amino acids 323 to 423; Hif-1α fragment corresponding to C-terminal 786-826 amino acids; made in house; host or cells: E. coli BL21 (DE3), vector pGEX-4T-1
T1 sequence (Q09472 323-423): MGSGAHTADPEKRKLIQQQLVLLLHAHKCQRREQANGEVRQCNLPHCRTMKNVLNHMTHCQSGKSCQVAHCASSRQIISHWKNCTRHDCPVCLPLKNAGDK
Experimental: Primary Biochemical Assay for the Inhibition of Biot-HIF-1α^786-826/GST-p300^323/423
The compounds were evaluated for their ability to inhibit the interaction between Hif-1α and p300 using a fluorescence assay (DELFIA™). The procedure described by Freedman S J at al., Nature Structural Biology 2003, 10 (7), 504-512 was suitably modified.
The human biotinylated Hif-1α fragment corresponding to C-terminal 786-826 amino acids (Biotinylated Hif-1α^786-826) was obtained from AnaSpec Inc (San Jose, Calif., USA) and used without further purifications.
A construct expressing the GST-p300^323-423 fragment was transformed in the BL21 strain (DE3) of E. coli. Said construct was obtained by cloning in the expression vector pGEX-4T-1 (Amersham No. 27-45-80-01) the DNA sequence which encodes for the p300 region ranging from amino acids 323 to 423; the DNA sequence was obtained by PCR (Polymerase Chain Reaction). Protein expression was induced with 1 mM isopropyl-1-thio-13-D-galactopyranoside (IPTG). The bacteria were lysed by sonication in the presence of a suitable buffer (50 mM Tris.HCl pH 8.00, 100 mM NaCl, 0.1 mM ZnSO4, 1 mM DTT, 0.1 mg/ml lysozyme and a tablet of Complete EDTA-free Protease Inhibitor Cocktail Tablets (Roche, catalogue number 1 873 580)) and the GST fusion protein present in the soluble fraction was purified on a Glutathione-Sepharose 4B resin (Amersham Biosciences; no. 27-4574-01). The protein final concentration was determined according to Bradford with the Biorad assay (Bradford M., Anal. Biochem., 72, 248, (1976)) and sample purity was evaluated by SDS-PAGE. The samples were stored at −80° C. in 50% glycerol.
The assay was carried out using NUNC Maxisorp 96-well plates as follows.
C96 NUNC Maxisorp plates (from Nunc, product No. 446612) were incubated overnight with streptavidin (Sigma; product No. S 4762) at a final concentration of 1 μg/ml in PBS buffer (Phosphate Buffered Saline 10 mM sodium phosphate, 150 mM sodium chloride pH 7.4). Each well was subsequently washed with 3×300 μl of TBST buffer (50 mM Tris-HCl pH 8.0, 150 mM NaCl, 0.05% (v/v) Tween 20). Each well was then added with 100 μl of a 10 nM solution of biotinylated Hif-1α^786-826 in TBSB (50 mM Tris-HCl pH 8.0, 150 mM NaCl, 5% (w/v) BSA (Sigma, product No. A 2153)) and incubated for 1 h at 25° C. In the last row of each plate, TBSB buffer only was added. Each well was subsequently washed with 3×300 μl of TBST buffer. The thus prepared plate represented the assay plate.
Separately, a plate (daughter plate) containing in each well 10 μl of each test compound dissolved in DMSO to a concentration of 10 μM was prepared. This plate was added with 100 μl of a 111 pM solution of GST-p300^323-423 diluted in the incubation buffer (TBSB added with 0.1% (v/v) Tween 20, 0.5 mM DTT, 10 μM ZnCl2) and the whole was mixed. 100 μl of the mixture contained in the daughter plate was immediately transferred to the assay plate.
Each daughter plate was prepared with 80 different compounds at a 10 μM concentration, safe for the last two well rows, wherein each well was added with 10 μl of DMSO. These two rows represented the positive (row 11, +Hif-1) and negative (row 12, −Hif-1) controls.
After incubation for 1 h at 25° C., each well was washed with 3×300 μl of TBST buffer (50 mM Tris-HCl pH 8.0, 150 mM NaCl, 0.05% (v/v) Tween 20). Each well was then added with 60.8 ng of an europium-labelled anti-GST antibody (DELFIA Eu-N1 labeled; Perkin Elmer; product no. A D 0251) dissolved in 100 μl of TBST buffer containing 10 μM ZnCl2. After incubation for 1 h at room temperature, each well was washed with 3×300 μl of TBST buffer, then 100 μl of signal amplification solution (Enhancement Solution, Perkin Elmer product No. 1244-105) was added.
The plates were then read using a FUSION alpha-FP-HT reader (Perkin Elmer) in fluorescence mode for time resolution.
The activity of the compounds was calculated as follows. […]

Compound	IC50 [1] [µM]	IC50 [2] [µM]	IC50 [3] [µM]
COC(=O)c1ccc(-c2ccc(/C=C3/SC(=S)N(CCCN4CCOCC4)C3=O)o2)cc1 [Compound 16, 4-{5-[3-(morpholine-4-yl-propyl)-4-oxo-2-thioxo-thiazolidine-5-ylidenemethyl]-furan-2-yl}benzoic acid methyl ester]	0.7	2.07	11.1
COC(=O)c1ccc(-c2ccc(/C=C3/SC(=S)N(Cc4ccc(C)cc4)C3=O)o2)cc1 [Compound 9, 4-{5-[3-(4-methylbenzyl)-4-oxo-2-thioxo-thiazolidine-5-ylidenemethyl]-furan-2-yl}benzoic acid methyl ester]	0.18	> 5	5.9
COC(=O)c1ccccc1-c1ccc(/C=C2/SC(=S)N(Cc3ccccc3)C2=O)o1 [Compound 1, 2-[5-(3-benzyl-4-oxo-2-thioxo-thiazolidine-5-ylidenemethyl)-furan-2-yl]benzoic acid methyl ester]	0.37	6.66	8.6
COC(=O)c1ccc(-c2ccc(/C=C3/SC(=S)N(CCc4ccccc4)C3=O)o2)cc1 [Compound 20, 4-{5-[3-[2-(phenyl)ethyl]-4-oxo-2-thioxo-thiazolidine-5-ylidenemethyl]-furan-2-yl}benzoic acid methyl ester]	0.46	10.5	4.2
NS(=O)(=O)c1ccc(-c2ccc(/C=C3/SC(=S)N(Cc4ccccc4)C3=O)o2)cc1 [Compound 7, 4-[5-(3-benzyl-4-oxo-2-thioxo-thiazolidine-5-ylidenemethyl)-furan-2-yl]benzenesulfonamide]	0.87	3.16	4.9
COc1ccc(CCN2C(=O)/C(=C\c3ccc(-c4ccc(C#N)cc4)o3)SC2=S)cc1OC [Compound 18, 4-{5-[3-[2-(3,4-dimethoxyphenyl)ethyl]-4-oxo-2-thioxo-thiazolidine-5-ylidenemethyl]-furan-2-yl}benzonitrile]	0.49	3.17	29.9
COC(=O)c1ccc(-c2ccc(/C=C3/SC(=S)N(Cc4cccs4)C3=O)o2)cc1 [Compound 13, 4-{5-[3-(2-thienyl)methyl-4-oxo-2-thioxo-thiazolidine-5-ylidenemethyl]-furan-2-yl}benzoic acid methyl ester]	0.58	9.64	14.7
COC(=O)c1ccc(-c2ccc(/C=C3/SC(=S)N(CCc4ccc(OC)c(OC)c4)C3=O)o2)cc1 [Compound 21, 4-{5-[3-[2-(3,4-dimethoxyphenyl)ethyl]-4-oxo-2-thioxo-thiazolidine-5-ylidenemethyl]-furan-2-yl}benzoic acid methyl ester]	0.24	4.86	7.4
N#Cc1ccc(-c2ccc(/C=C3/SC(=S)N(CCc4ccccc4)C3=O)o2)cc1 [Compound 19, 4-{5-[3-(2-phenyl)ethyl-4-oxo-2-thioxo-thiazolidine-5-ylidenemethyl]-furan-2-yl}benzonitrile]	0.33	7.29	1.4

From US20080261980A1, “Use of Thiazolidinone Derivatives as Antiangiogenic Agents” (Cell Therapeutics, Inc., priority 2004, published 2008)
